{
  "source": "patent US20070203177A1",
  "about": "“Forms of dolasetron mesylate and processes for their preparation” (priority 2006, published 2007)",
  "assay": "Heat transformations of Dolasetron mesylate forms (solid-state form after heating)",
  "format": "physicochemical",
  "data": [
    {"smiles": "CS(=O)(=O)O.O=C(OC1C[C@@H]2CC3C[C@H](C1)N2CC3=O)c1c[nH]c2ccccc12", "note": "(stereo partly drawn) [Form VIII, Dolasetron mesylate]", "values": [
      {"measurement": "HEAT TRANSFORMATION RESULT", "setting": "heated at 160 °C, 30 min", "value": "XII"},
      {"measurement": "HEAT TRANSFORMATION RESULT", "setting": "heated at 160 °C, 60 min., listed as VIII", "value": "XII"}
    ]},
    {"smiles": "CS(=O)(=O)O.O=C(OC1C[C@@H]2CC3C[C@H](C1)N2CC3=O)c1c[nH]c2ccccc12", "note": "(stereo partly drawn) [Form I, Dolasetron Mesylate]", "values": [
      {"measurement": "HEAT TRANSFORMATION RESULT", "setting": "heated at 190 °C, 30 min.", "value": "Amorphous > III"}
    ]},
    {"smiles": "O=C(OC1CC2CC3CC(C1)N2CC3=O)c1c[nH]c2ccccc12", "note": "(stereo not drawn) [Form II, (2α,6α,8α,9αβ)-octahydro-3-oxo-2,6-methano-2H-quinolizin-8-yl-1H-indole-3-carboxylate monomethanesulfonate monohydrate, reference compound]", "values": [
      {"measurement": "HEAT TRANSFORMATION RESULT (second TEMP./TIME)", "setting": "after 160 °C, 30 min, then 160, 30 min", "value": "VII > III"}
    ]},
    {"smiles": "CS(=O)(=O)O.O=C(OC1C[C@@H]2CC3C[C@H](C1)N2CC3=O)c1c[nH]c2ccccc12", "note": "(stereo partly drawn) [Form IV, Dolasetron mesylate]", "values": [
      {"measurement": "HEAT TRANSFORMATION RESULT", "setting": "heated at 160 °C, 60 min., listed as IV", "value": "VII + IV"}
    ]},
    {"smiles": "CS(=O)(=O)O.O=C(OC1C[C@@H]2CC3C[C@H](C1)N2CC3=O)c1c[nH]c2ccccc12", "note": "(stereo partly drawn) [Form V, Dolasetron mesylate]", "values": [
      {"measurement": "HEAT TRANSFORMATION RESULT", "setting": "heated at 160 °C, 60 min., listed as V", "value": "XII"}
    ]}
  ]
}
